Key:
[1] = test system: AMPK; assay: Measurement of AMPK activity by Western blot in C2C12 cells; format: cell-based; design: key to AMPK activity (degree of phosphorylation of serine-79 and threonine-172): fold increase in threonine-172 phosphorylation; conditions: 10 μM for 50 minutes, no superscript: Western blot of serine-79 and threonine-172 phosphorylation
Description: C2C12 cells were cultured and differentiated in the same manner as in Experimental Example 1. Treatment with the test materials was also performed in the same manner as in Experimental Example 1 (10 μM for 50 minutes). The culture medium was removed and the cells were washed for 2 times with PBS and protein extracts were obtained using a lysis buffer (50 mM tris-HCl, pH 7.4, 1% NP-40, 0.25% sodium deoxycholate, 150 mM NaCl, 1 mM EDTA, 1 mM PMSF, 1 mM sodium o-vanadate, 1 mM NaF, 1 μg/mL apronitin, 1 μg/mL leu-peptin, 1 μg/mL pepstatin). The AMPK activity was determined from Western blot analysis of the degree of phosphorylation of serine-79 […] acetyl CoA carboxylase and the degree of phosphorylation of threonine-172. The amount of ERK (extracellular signal regulated protein kinase) was confirmed by Western blot in order to quantify the proteins.
The result of Western blot analysis is given in Table 3 below, wherein “strong” means that the degree of phosphorylation of threonine-172 increased by 3 times or more, “mild” means that the degree of phosphorylation of threonine-172 increased by 1 to 3 times and “weak” means that the degree of phosphorylation of threonine-172 increased by less than 1 time.

[2] = test system: C2C12 muscle cells; assay: Analysis of glucose absorption (2-deoxyglucose) in differentiated C2C12 muscle cells; format: cell-based; conditions: test materials 10 μM, times relative to control group
Outline: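 Uptake of 0.2 μCi 2-deoxyglucose over 20 min, counted radiometrically in lysed cells. Before tracer, compounds (10 μM) were applied for 30 min to C2C12 cells differentiated 6 days in 1% serum and equilibrated 3 h in 5 mM glucose KRB.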

SMILES	AMPK activity (degree of phosphorylation of serine-79 and threonine-172) [1]	Glucose absorption [2]
CC(C)c1nc(OCc2ccccc2)c2ccccc2n1 [Compound 415, 4-Benzyloxy-2-isopropylquinazoline]	1.1	–
COc1ccc(CNc2nc(N3CCN(C)CC3)nc3ccccc23)c(OC)c1 [Compound 294, (2,4-Dimethoxybenzyl)-[2-(4-methylpiperazino-1-yl)-quinazolino-4-yl]-amine]	0.4	–
COc1cc(CNc2nc(C(OC)c3ccccc3)nc3ccccc23)cc(OC)c1OC (centres unmarked) [Compound 367, [2-(Methoxyphenylmethyl)-quinazolino-4-yl]-(3,4,5-trimethoxybenzyl)-amine]	2.2	–
COc1cc(CNc2nc(N3CCOCC3)nc3ccccc23)cc(OC)c1OC [Compound 313, (2-Morpholino-4-ylquinazolino-4-yl)-(3,4,5-trimethoxybenzyl)-amine]	0.1	–
COc1cc(CNc2nc(N3CCN(C)CC3)nc3ccccc23)cc(OC)c1OC [Compound 314, [2-(4-Methylpiperazino-1-yl)-quinazolino-4-yl]-(3,4,5-trimethoxybenzyl)-amine]	0.2	–
COc1cccc(CNc2nc(-c3ccco3)nc3ccccc23)c1OC [Compound 342, (2,3-Dimethoxybenzyl)-(2-furano-2-ylquinazolino-4-yl)-amine]	1.0	–
OCCNc1nc(C2CCCCC2)nc2ccccc12 [Compound 210, 2-(2-Cyclohexylquinazolino-4-ylamino)-ethanol]	–	0.9
Clc1ccc(-c2nc(NCCCCc3ccccc3)c3ccccc3n2)cc1 [Compound 264, [2-(4-Chlorophenyl)-quinazolino-4-yl]-(4-phenylbutyl)-amine]	–	1.1
CCSc1nc(NCCO)c2ccccc2n1 [Compound 47, 2-(2-Ethylsulfanylquinazolino-4-ylamino)-ethanol]	–	0.9
FC(F)(F)c1cccc(CNc2nc(C3CCCCC3)nc3ccccc23)c1 [Compound 202, (2-Cyclohexylquinazolino-4-yl)-(3-trifluoromethylbenzyl)-amine]	–	1.4
c1ccc(Oc2cccc(Nc3nc(-c4ccccc4)nc4ccccc34)c2)cc1 [Compound 81, (3-Phenoxy-phenyl)-(2-phenylquinazolino-4-yl)-amine]	–	0.9
Brc1cccc(Nc2nc(-c3ccccc3)nc3ccccc23)c1 [Compound 83, (3-Bromophenyl)-(2-phenylquinazolino-4-yl)-amine]	–	0.7
c1ccc(CCCCNc2nc(C3CCCCC3)nc3ccccc23)cc1 [Compound 204, (2-Cyclohexylquinazolino-4-yl)-(4-phenylbutyl)-amine]	–	1.2
c1ccc(-c2nc(NCC3CCCC3)c3ccccc3n2)cc1 [Compound 159, Cyclopentylmethyl-(2-phenylquinazolino-4-yl)-amine]	–	2.6
Cc1ccc(Nc2nc(-c3ccccc3)nc3ccccc23)c(C)c1 [Compound 73, (2,4-Dimethyl-phenyl)-(2-phenylquinazolino-4-yl)-amine]	–	1.0
Oc1ccccc1CCNc1nc(-c2ccccc2)nc2ccccc12 [Compound 152, 2-[2-(2-Phenylquinazolino-4-ylamino)-ethyl]-phenol]	–	2.4
O=C1CCCN1CCCNc1nc(-c2ccccc2)nc2ccccc12 [Compound 150, 1-[3-(2-Phenylquinazolino-4-ylamino)-propyl]-pyrrolidino-2-one]	–	2.6
CCSc1nc(NCc2cc(OC)cc(OC)c2)c2ccccc2n1 [Compound 38, (3,5-Dimethoxybenzyl)-(2-ethylsulfanylquinazolino-4-yl)-amine]	–	1.5
CCCNc1nc(SCC)nc2ccccc12 [Compound 31, (2-Ethylsulfanylquinazolino-4-yl)-propylamine]	–	1.1
COc1cc(CNc2nc(-c3ccccc3)nc3ccccc23)cc(OC)c1OC [Compound 129, (2-Phenylquinazolino-4-yl)-(3,4,5-trimethoxybenzyl)-amine]	–	1.3
c1ccc(Cc2nc(NCc3cccc4ccccc34)c3ccccc3n2)cc1 [Compound 217, (2-Benzylquinazolino-4-yl)-naphthaleno-1-ylmethylamine]	–	1.2
OCCNc1nc(-c2cccnc2)nc2ccccc12 [Compound 246, 2-(2-Pyridino-3-ylquinazolino-4-ylamino)-ethanol]	–	1.2

SMILES	AMPK activity (degree of phosphorylation of serine-79 and threonine-172) [1]	Glucose absorption [2]
c1ccc2c(CNc3nc(C4CCCCC4)nc4ccccc34)cccc2c1 [Compound 205, (2-Cyclohexylquinazolino-4-yl)-naphthaleno-1-ylmethylamine]	–	1.3
CCC(COC)Nc1nc(-c2ccccc2)nc2ccccc12 (centres unmarked) [Compound 104, (1-Methoxymethylpropyl)-(2-phenylquinazolino-4-yl)-amine]	–	1.0
Cc1cc(C)c(Nc2nc(-c3ccccc3)nc3ccccc23)c(C)c1 [Compound 78, (2-Phenylquinazolino-4-yl)-(2,4,6-trimethyl-phenyl)-amine]	–	1.4
OCCOCCNc1nc(Cc2ccccc2)nc2ccccc12 [Compound 221, 2-[2-(2-Benzylquinazolino-4-ylamino)-ethoxy]-ethanol]	–	1.5
COc1cccc(CNc2nc(-c3ccccn3)nc3ccccc23)c1 [Compound 224, (3-Methoxybenzyl)-(2-pyridino-2-ylquinazolino-4-yl)-amine]	–	1.1
Fc1cccc(CNc2nc(Cc3ccccc3)nc3ccccc23)c1 [Compound 219, (2-Benzylquinazolino-4-yl)-(3-fluorobenzyl)-amine]	–	2.3
COc1ccc(CCNc2nc(-c3ccccc3)nc3ccccc23)cc1 [Compound 124, [2-(4-Methoxyphenyl)-ethyl]-(2-phenylquinazolino-4-yl)-amine]	–	1.4
c1ccc(CCNc2nc(-c3ccncc3)nc3ccccc23)cc1 [Compound 251, Phenethyl-(2-pyridino-4-ylquinazolino-4-yl)-amine]	–	0.6
Fc1ccc(Nc2nc(-c3ccccc3)nc3ccccc23)cc1 [Compound 76, (4-Fluorophenyl)-(2-phenylquinazolino-4-yl)-amine]	–	1.0
FC(F)(F)c1cccc(CNc2nc(-c3cccnc3)nc3ccccc23)c1 [Compound 238, (2-Pyridino-3-ylquinazolino-4-yl)-(3-trifluoromethylbenzyl)-amine]	–	1.0
COCCNc1nc(-c2ccccc2)nc2ccccc12 [Compound 67, (2-Methoxy-ethyl)-(2-phenylquinazolino-4-yl)-amine]	–	0.9
c1ccc(CNc2nc(Cc3ccccc3)nc3ccccc23)cc1 [Compound 211, Benzyl-(2-benzylquinazolino-4-yl)-amine]	–	1.3
COc1ccc(CNc2nc(Cc3ccccc3)nc3ccccc23)cc1OC [Compound 331, (2-Benzylquinazolino-4-yl)-(3,4-dimethoxybenzyl)-amine]	–	1.2
Cc1ccccc1Nc1nc(-c2ccccc2)nc2ccccc12 [Compound 71, (2-Phenylquinazolino-4-yl)-o-tollylamine]	–	1.0
c1ccc(CCNc2nc(-c3ccccc3)nc3ccccc23)cc1 [Compound 68, Phenethyl-(2-phenylquinazolino-4-yl)-amine]	–	1.3
c1cncc(-c2nc(NCc3ccc4c(c3)OCO4)c3ccccc3n2)c1 [Compound 242, Benzo[1,3]dioxol-5-ylmethyl-(2-pyridino-3-ylquinazolino-4-yl)-amine]	–	0.9
COc1cccc(CCNc2nc(-c3ccccc3)nc3ccccc23)c1 [Compound 120, [2-(3-Methoxyphenyl)-ethyl]-(2-phenylquinazolino-4-yl)-amine]	–	1.4
CCSc1nc(NC2CCN(Cc3ccccc3)CC2)c2ccccc2n1 [Compound 41, (1-Benzyl-piperidino-4-yl)-(2-ethylsulfanylquinazolino-4-yl)-amine]	–	1.1
Fc1cccc(CNc2nc(C3CCCCC3)nc3ccccc23)c1 [Compound 207, (2-Cyclohexylquinazolino-4-yl)-(3-fluorobenzyl)-amine]	–	2.0
CCSc1nc(NCCCOC(C)C)c2ccccc2n1 [Compound 33, (2-Ethylsulfanylquinazolino-4-yl)-(3-isopropoxypropyl)-amine]	–	1.2
CCCCCCCCCCCc1ccc(Nc2nc(-c3ccccc3)nc3ccccc23)cc1 [Compound 74, (2-Phenylquinazolino-4-yl)-(4-undecyl-phenyl)-amine]	–	0.9
COc1cccc(CNc2nc(-c3ccc(Cl)cc3)nc3ccccc23)c1 [Compound 260, [2-(4-chlorophenyl)-quinazolino-4-yl]-(3-methoxybenzyl)-amine]	–	1.4

Reference: patent US20080207614A1, “QUINAZOLINE DERIVATIVES FOR THE TREATMENT AND PREVENTION OF DIABETES AND OBESITY” (SK CHEMICALS CO., LTD., priority 2004, published 2008)
